Measurements as given in US7919101B2 (priority 2008, dated 2011).
Residues, ends and D or L forms follow the SMILES beside them.

Molecular target: gp41 six-helix bundle formation between N46 and C34-biotin (Human immunodeficiency virus type 1 group M subtype B, UniProt P04578)
Format: biochemical, HIV-1
Settings: triple combination of T-20, T-1249 and T-1144
Description: 6. Enzyme-linked Immunosorbent Assay (ELISA). […] The plate was then incubated for 30 min and added to horseradish peroxidase (HRP) labeled with streptavidin (SA-HRP) (ZYMED Laboratories). The plate was washed with the washing buffer (PBS containing 0.01% Tween 20) for 6 times to remove any unbound peptide. The substrate TMB was added sequentially. Absorbance at 450 nm (A450) was measured using an ELISA reader.

gp41 six-helix bundle formation between N46 and C34-biotin, sequence (P04578 536-581): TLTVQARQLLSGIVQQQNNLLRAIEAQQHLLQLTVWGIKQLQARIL

Q: With `CC[C@H](C)[C@H](NC(=O)[C@H](C)NC(=O)[C@H](CCCNC(=N)N)NC(=O)[C@H](CC(=O)O)NC(=O)[C@H](Cc1c[nH]c2ccccc12)NC(=O)[C@H](C)NC(=O)[C@H](CCC(=O)O)NC(=O)[C@H](Cc1c[nH]c2ccccc12)NC(=O)[C@@H](NC(=O)[C@@H](NC(C)=O)[C@@H](C)O)[C@@H](C)O)C(=O)N[C@@H](C)C(=O)N[C@@H](CCC(=O)O)C(=O)N[C@@H](Cc1ccc(O)cc1)C(=O)N[C@@H](C)C(=O)N[C@@H](C)C(=O)N[C@@H](CCCNC(=N)N)C(=O)N[C@H](C(=O)N[C@@H](CCC(=O)O)C(=O)N[C@@H](C)C(=O)N[C@@H](CC(C)C)C(=O)N[C@@H](CC(C)C)C(=O)N[C@@H](CCCNC(=N)N)C(=O)N[C@@H](C)C(=O)N[C@@H](CC(C)C)C(=O)N[C@@H](CCC(N)=O)C(=O)N[C@@H](CCC(=O)O)C(=O)N[C@@H](CCC(N)=O)C(=O)N[C@@H](CCC(N)=O)C(=O)N[C@@H](CCC(=O)O)C(=O)N[C@@H](CCCCN)C(=O)N[C@@H](CC(N)=O)C(=O)N[C@@H](CCC(=O)O)C(=O)N[C@@H](C)C(=O)N[C@@H](C)C(=O)N[C@@H](CC(C)C)C(=O)N[C@@H](CCCNC(=N)N)C(=O)N[C@@H](CCC(=O)O)C(=O)N[C@@H](CC(C)C)C(N)=O)[C@@H](C)CC` [T-1144] (Ac-TTWEAWDRAIAEYAARIEALLRALQEQQEKNEAALREL-NH2; N-terminus and C-terminus assumed) as the compound, how does the “Dose reduction, six-helix bundle formation” value read?
A: ~2 fold
